Data taken from patent publication EP2264010A1, “Hetarylamidines” (Bayer CropScience AG, priority 2009, dated 2010).

Experiments:
SETVI = test: Herbicidal activity, test type PE; type: in vivo; details: TEST-TYP PE; for pest or weed control at 320 g/ha: read-out: herbizide Wirkung SETVI; for herbizide Wirkung SETVI: 320 G/HA
VIOTR [1] = test: Herbicidal activity, test type PE; type: in vivo; details: TEST-TYP PE; for pest or weed control at 320 g/ha: read-out: herbizide Wirkung VIOTR
AMARE [2] = test: Herbicidal activity, test type PE; type: in vivo; details: TEST-TYP PE; for pest or weed control at 320 g/ha: Amaranthus retroflexus, read-out: herbizide Wirkung AMARE; for herbizide Wirkung AMARE: 320 G/HA
[3] = logP by HPLC on reversed-phase columns (C 18), EEC Directive 79/831 Annex V.A8; type: physicochemical; details: c18 reversed-phase hplc, reversed-phase (C 18), read-out: log p
Source text: Die Messung der logP Werte erfolgte gemäß EEC Directive 79/831 Annex V.A8 durch HPLC (High Performance Liquid Chromatography) an reversed-phase Säulen (C 18), mit der nachfolgenden Methode: […]

VERPE [4] = test: Herbicidal activity, test type PE; type: in vivo; details: TEST-TYP PE; for pest or weed control at 320 g/ha: read-out: herbizide Wirkung VERPE; for herbizide Wirkung VERPE: 320 G/HA
MATIN = test: Herbicidal activity, test type PE; type: in vivo; details: TEST-TYP PE; for pest or weed control at 320 g/ha: read-out: herbizide Wirkung MATIN
AMARE [5] = test: Herbicidal activity, test type PO; type: in vivo; details: TEST-TYP PO, 80 G/HA
VIOTR [6] = test: Herbicidal activity, test type PO; type: in vivo; details: TEST-TYP PO, 80 G/HA
STEME = test: Herbicidal activity, test type PE; type: in vivo; details: TEST-TYP PE, read-out: herbizide Wirkung STEME
VERPE [7] = test: Herbicidal activity, test type PO; type: in vivo; details: TEST-TYP PO, 80 G/HA
LOLMU = test: Herbicidal activity, test type PE; type: in vivo; details: TEST-TYP PE, read-out: herbizide Wirkung LOLMU
ECHCG = test: Herbicidal activity, test type PE; type: in vivo; details: TEST-TYP PE, 320 G/HA
PHBPU = test: Herbicidal activity, test type PO; type: in vivo; details: TEST-TYP PO, 80 G/HA

Row | SMILES | pest or weed control at 320 g/ha (SETVI) [%] | pest or weed control at 320 g/ha (VIOTR [1]) [%] | pest or weed control at 320 g/ha (AMARE [2]) [%] | chromatographic logP [3] | also measured
1 | CCN(C)C=Nc1ncc(C)cc1-c1ccc(Cl)c(C(F)(F)F)c1 [compound 2] | 90 | 90 |  |  | 
2 | CCN(C)C=Nc1ncc(Cl)cc1-c1ccc(Cl)c(C(F)(F)F)c1 [compound 4] | 90 | 80 | 90 |  | 
3 | CCN(C=Nc1ncc(C)cc1-c1ccc(Cl)c(C(F)(F)F)c1)CC [compound 7] |  |  |  | 1.75 | 
4 | Cc1cnc(N=CN(C(C)C)C(C)C)c(-c2ccc(Cl)c(C(F)(F)F)c2)c1 [compound 8] |  |  |  | 2.03 | 
5 | CC(=Nc1ncc(C)cc1-c1ccc(Cl)c(C(F)(F)F)c1)N(C)C [compound 9] |  |  |  | 0.87 | 
6 | Cc1cnc(N=CN2CCCC2)c(-c2ccc(Cl)c(C(F)(F)F)c2)c1 [compound 10] |  |  |  | 1.63 | 
7 | CCN(C=Nc1ncc(Cl)cc1-c1ccc(Cl)c(C(F)(F)F)c1)CC [compound 11] |  | 80 | 80 | 3.63 | 
8 | CC(C)N(C=Nc1ncc(Cl)cc1-c1ccc(Cl)c(C(F)(F)F)c1)C(C)C [compound 12] |  |  |  | 3.71 | 
9 | CN(C)C=Nc1ncc(Cl)cc1-c1ccc(F)c(C(F)(F)F)c1 [compound 13] |  |  | 80 | 2 | pest or weed control at 320 g/ha (VERPE [4]): 80%
10 | CCN(C=Nc1ncc(Cl)cc1-c1ccc(F)c(C(F)(F)F)c1)CC [compound 15] | 80 |  | 80 | 2.59 | pest or weed control at 320 g/ha (MATIN): 80%; herbizide Wirkung AMARE (AMARE [5]): 90; herbizide Wirkung VIOTR (VIOTR [6]): 80; pest or weed control at 320 g/ha (STEME): 80%; herbizide Wirkung VERPE (VERPE [7]): 80
11 | Fc1ccc(-c2cc(Cl)cnc2N=CN2CCCC2)cc1C(F)(F)F [compound 16] | 100 |  |  | 1.75 | pest or weed control at 320 g/ha (STEME): 80%; pest or weed control at 320 g/ha (VERPE [4]): 80%; pest or weed control at 320 g/ha (LOLMU): 80%
12 | CCN(C)C=Nc1ncc(Br)cc1-c1ccc(Cl)c(C(F)(F)F)c1 [compound 17] |  |  |  | 3.09 | 
13 | CCN(C)C=Nc1ncc(C)cc1-c1ccc(F)c(C(F)(F)F)c1 [compound 18] | 90 | 90 | 80 | 1.48 | pest or weed control at 320 g/ha (VERPE [4]): 100%
14 | Cc1cnc(N=CN(C)C)c(-c2ccc(F)c(C(F)(F)F)c2)c1 [compound 19] |  |  |  | 1.33 | 
15 | CC(=Nc1ncc(C)cc1-c1ccc(F)c(C(F)(F)F)c1)N(C)C [compound 20] |  |  |  | 1.3 | 
16 | CC(C)N(C=Nc1ncc(Cl)cc1-c1ccc(F)c(C(F)(F)F)c1)C(C)C [compound 21] |  |  |  | 4.19 | 
17 | CC(=Nc1ncc(Cl)cc1-c1ccc(F)c(C(F)(F)F)c1)N1CCCCC1 [compound 22] |  |  |  | 1.74 | 
18 | Cc1cnc(N=CN2CCCC2)c(-c2ccc(F)c(C(F)(F)F)c2)c1 [compound 25] | 80 |  | 80 | 1.46 | 
19 | FC(F)(F)c1ccc(-c2cc(Cl)cnc2N=CN2CCCC2)cc1Cl [compound 26] |  |  |  | 1.98 | 

Row | SMILES | pest or weed control at 320 g/ha (SETVI) [%] | pest or weed control at 320 g/ha (VIOTR [1]) [%] | pest or weed control at 320 g/ha (AMARE [2]) [%] | chromatographic logP [3] | also measured
20 | Cc1cnc(N=CN(C)C)c(-c2cccc(C(F)(F)F)c2)c1 [compound 31] | 80 |  |  |  | pest or weed control at 320 g/ha (VERPE [4]): 80%
21 | CCN(C)C=Nc1ncc(C)cc1-c1cccc(C(F)(F)F)c1 [compound 32] | 90 | 80 | 80 |  | pest or weed control at 320 g/ha (MATIN): 90%; pest or weed control at 320 g/ha (VERPE [4]): 80%
22 | CCN(C)C=Nc1ncc(-c2ccc(Cl)c(C(F)(F)F)c2)cc1C [compound 58] | 90 |  | 90 |  | pest or weed control at 320 g/ha (MATIN): 80%; herbizide Wirkung ECHCG (ECHCG): 90; pest or weed control at 320 g/ha (VERPE [4]): 90%
23 | Cc1cc(-c2ccc(Cl)c(C(F)(F)F)c2)cnc1N=CN(C)C [compound 59] |  | 80 | 80 |  | pest or weed control at 320 g/ha (MATIN): 80%; pest or weed control at 320 g/ha (STEME): 80%; pest or weed control at 320 g/ha (VERPE [4]): 80%
24 | Cc1cc(-c2ccc(F)c(C(F)(F)F)c2)cnc1N=CN(C)C [compound 64] | 90 | 90 | 90 |  | pest or weed control at 320 g/ha (MATIN): 100%; herbizide Wirkung AMARE (AMARE [5]): 80; herbizide Wirkung VIOTR (VIOTR [6]): 80; pest or weed control at 320 g/ha (STEME): 90%; pest or weed control at 320 g/ha (VERPE [4]): 100%; pest or weed control at 320 g/ha (LOLMU): 90%
25 | Cc1cc(-c2cccc(C(F)(F)F)c2)cnc1N=CN(C)C [compound 76] | 100 | 90 | 90 |  | 
26 | CCN(C)C=Nc1ncc(-c2cccc(C(F)(F)F)c2)cc1C [compound 77] | 90 |  | 80 |  | herbizide Wirkung ECHCG (ECHCG): 90; pest or weed control at 320 g/ha (LOLMU): 90%
27 | CCN(C)C=Nc1ncc(-c2ccc(Cl)c(Cl)c2)cc1C [compound 94] | 90 | 80 |  |  | pest or weed control at 320 g/ha (VERPE [4]): 80%
28 | Cc1cc(-c2ccc(Cl)c(Cl)c2)cnc1N=CN(C)C [compound 95] | 80 | 80 |  |  | 
29 | CCN(C)C=Nc1ncc(-c2cccc(Cl)c2)cc1C [compound 101] | 90 | 80 | 80 |  | pest or weed control at 320 g/ha (MATIN): 95%; herbizide Wirkung PHBPU (PHBPU): 80; herbizide Wirkung AMARE (AMARE [5]): 80; herbizide Wirkung ECHCG (ECHCG): 85; pest or weed control at 320 g/ha (LOLMU): 80%
30 | Cc1cc(-c2cccc(Cl)c2)cnc1N=CN(C)C [compound 102] | 90 | 80 |  |  | pest or weed control at 320 g/ha (MATIN): 90%; pest or weed control at 320 g/ha (LOLMU): 80%
31 | CCN(C)C=Nc1ncc(-c2cccc(C)c2)cc1C [compound 105] | 80 |  |  |  | herbizide Wirkung ECHCG (ECHCG): 80
32 | Cc1cccc(-c2cnc(N=CN(C)C)c(C)c2)c1 [compound 106] |  | 80 |  |  | pest or weed control at 320 g/ha (MATIN): 80%
33 | CCN(C)C=Nc1ncc(C)cc1-c1ccc(Cl)c(C(F)(F)F)c1 [compound 127] |  |  | 90 |  | pest or weed control at 320 g/ha (MATIN): 80%; herbizide Wirkung SETVI (SETVI): 90; herbizide Wirkung VIOTR (VIOTR [1]; 320 G/HA): 80
34 | CCN(C=Nc1ncc(Cl)cc1-c1ccc(F)c(C(F)(F)F)c1)CC [compound 140] |  |  |  |  | herbizide Wirkung MATIN (MATIN; 320 G/HA): 80; herbizide Wirkung PHBPU (PHBPU): 80; herbizide Wirkung AMARE (AMARE [5]): 80; herbizide Wirkung SETVI (SETVI): 80; herbizide Wirkung VERPE (VERPE [7]): 80
35 | Fc1ccc(-c2cc(Cl)cnc2N=CN2CCCC2)cc1C(F)(F)F [compound 141] |  |  | 80 |  | herbizide Wirkung SETVI (SETVI): 80
36 | CCN(C)C=Nc1ncc(C)cc1-c1ccc(F)c(C(F)(F)F)c1 [compound 142] |  |  |  |  | pest or weed control at 320 g/ha (MATIN): 80%; herbizide Wirkung SETVI (SETVI): 90; herbizide Wirkung AMARE (AMARE [2]): 80; pest or weed control at 320 g/ha (STEME): 90%; herbizide Wirkung VERPE (VERPE [4]): 90
37 | Cc1cnc(N=CN2CCCC2)c(-c2ccc(F)c(C(F)(F)F)c2)c1 [compound 147] |  |  |  |  | pest or weed control at 320 g/ha (VERPE [4]): 90%
38 | CCN(C)C=Nc1ncc(-c2ccc(Cl)c(C(F)(F)F)c2)cc1C [compound 175] |  |  |  |  | herbizide Wirkung ECHCG (ECHCG): 90; herbizide Wirkung AMARE (AMARE [2]): 80; herbizide Wirkung VERPE (VERPE [4]): 90
